Measurements published in paper PMC10835127, “Viruses traverse the human proteome through peptide interfaces that can be biomimetically leveraged for drug discovery” (Proceedings of the National Academy of Sciences of the …, 2024).

Legend:
Kinetic solubility = type: physicochemical; conditions: PBS pH 7.4 buffer, pH 7.4, aqueous buffer, kinetic from dmso stock
Method: 10 mM DMSO Stock solutions of tested compounds were distributed into filtration plate (Multiscreen Durapore 0.45µm) containing PBS pH 7.4 buffer to a final maximum concentration of 130 μM (1.3 % DMSO/buffer). Solutions or suspensions were shaken for 30 min at room temperature. The samples were filtered under vacuum into a collection plate and diluted 50 % with ACN for UV analysis. Quantification was performed against a Reference plate containing the same tested compounds fully solubilized in ACN/PBS buffer 1:1. Reference and Sample plates were analyzed by UPLC/UV-MS using a generic UPLC method. […]

[1] = Cryopreserved hepatocyte stability, mouse; type: in vitro ADME; conditions: cryopreserved hepatocytes, murine hepatocytes, read-out: CLint mHep
Method: Cryopreserved hepatocyte stability
Tested compounds (1 μM) were incubated with human cryopreserved hepatocytes (pool of 5) (IVT Celsis) and mouse cryopreserved hepatocytes (IVT Celsis). Hepatocytes (1, 0.5 or 0.25 x10^6 cells/mL, Williams’ Medium E (WME) with 4 mM L-glutamine and 2 mM magnesium sulphate) containing tested compound (final substrate concentration 1 μM; final DMSO concentration 0.25 %) were preincubated at 37 °C. The final incubation volume was 500 μl. 3 species-specific control compounds were included with each species. At 7 time points (0, 10, 20, 40, 60, 90, and 120 min), reactions were stopped by transferring 50 μl of the incubation mixture into 0.5 μM carbamazepine in cold acetonitrile. Tested compound concentrations were analyzed by LC-MS/MS and the resulting data were used to determine the half-life and intrinsic clearance of the compound in each species. […]

MitoNEET = biological target: T1, MitoNEET (Homo sapiens, UniProt Q9NZ45); assay: In vitro NEET [2Fe-2S] cluster release, MitoNEET; type: biochemical; conditions: recombinant MitoNEET, 37 °C, absorbance 460 nm
T1 construct: MitoNEET ([60]) and NAF-1 ([61]) cytosolic domains and MiNT ([62]) were purified from E. coli as previously published; made in house; host or cells: E. coli
T1 sequence (Q9NZ45 32-108 limits assumed): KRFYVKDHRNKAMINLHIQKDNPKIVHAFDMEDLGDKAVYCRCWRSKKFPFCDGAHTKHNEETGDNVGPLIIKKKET
Method: MitoNEET ([60]) and NAF-1 ([61]) cytosolic domains and MiNT ([62]) were purified from E. coli as previously published. Experiments were performed in 96-well plates at 37 °C with […] of Fe-S cluster in a buffer composed of 50 mM Tris-HCl pH 7 and 100 mM NaCl. dEF3122 was dissolved in dimethyl sulfoxide (DMSO) at 10 mM. CPEP31 was dissolved in PBS at 10 mM. After 20 min of incubation of the protein with the molecule, NEET cluster release was followed by measuring the absorbance at 460 and 800 nm over time using a plate reader (SpectraMax ID3). The absorbance at 460 nm was corrected for the variation of the baseline (absorbance at 800 nm) over time and normalized at 1 at the beginning of the kinetics.

[2] = test system: diet-induced obese model of NASH; assay: NASH mouse model (AMLN diet-induced obese); type: in vivo, C57BL/6JRj mice; conditions: oral, 8 wk
Method: Fig. 6. Effect of the lead compound in a diet-induced obese model of NASH. Mice fed with a high fat, high fructose, and cholesterol supplemented diet for 38 wk were then treated in the last 8 wk with vehicle, dEF3122, or OCA (obeticholic acid) at indicated concentrations (n = 12 animals per group). (A and B) Histopathological mean score changes between the beginning and end of the treatment for liver portal inflammation (A) and liver portal fibrosis (B) are shown with representative stained liver sections of hematoxylin and eosin (H&E) and picrosirius red stains, respectively. (C–E) (C) Areas of kidney fibrosis at the end of the treatment are shown as % of the total area of the selected fields with representative sections of the kidney stained with picrosirius red. (D) % CD3 and (E) % F4/80 positive areas in kidneys with representative sections of CD3 and F4/80 immunostainings. *P < 0.05, **P < 0.01, and ***P < 0.001 from the T test with a preliminary nonsignificant Shapiro–Wilk test or from Wilcoxon signed–rank test otherwise.
Five-week-old male C57BL/6JRj mice were fed either chow diet or AMLN diet (40% total fat kcal of which 18.5% were trans-fat kcal, 20% fructose, and 2% cholesterol). This diet was maintained for 30 wk prior to study initiation. Three weeks prior to study initiation, liver biopsies were taken, and animals with steatosis grade <2 and fibrosis stage <1 were excluded from the study. Prior to the first administration of the test compound, stratified randomization of mice into treatment groups was performed according to collagen 1a1 (IHC) morphometry from the week 3 biopsies. Each treatment group consisted of 12 mice. For a total of 8 wk, compound dEF3122 was administered orally, twice daily at a concentration of 7 mg/kg or 20 mg/kg. OCA was administered orally, once daily at a concentration of 7 mg/kg. Animals were killed at the end of the treatment, and livers and kidneys were collected. […]
NASH histopathology and immunochemistry
Livers were fixed in 10 % neutral buffered formalin and paraffin-embedded; and sections were stained with H&E and picrosirius red to analyze their morphology. Histopathological analysis was performed by a pathologist blinded to the study. Fibrosis was evaluated by quantification of the picrosirius red positive areas. Inflammation was graded by counting the H&E positive inflammatory foci per field.
Kidneys were fixed in 4 % PFA and paraffin embedded. 4-μm sections were stained with picrosirius red. Images were acquired using a digital slide scanner (Nanozoomer S210 Digital Slide Scanner, Hamamatsu). Renal lesions were blindly examined by a renal pathologist. The extent of interstitial fibrosis was quantified using Image J software (NIH) on Sirius red scanned colored sections. In short, at least 20 random selected fields (original magnification, ×200) across the kidney cortex were analyzed per each kidney section, and the results were expressed as percentages of the total area of the selected fields.
For immunohistochemistry, 4-µm sections of paraffin-embedded kidneys were submitted for appropriate antigen retrieval by high pressure heating in a solution of Tris EDTA Tween or in a citrate solution. Then, sections were then incubated overnight at 4°C with the following antibodies: rabbit monoclonal anti-CD3 (Abcam, 1:100) and rat monoclonal anti- F4/80 (Biorad, 1:100). After washing, sections were incubated with appropriate amplification secondary antibody: biotin-coupled anti-rabbit (GE Healthcare) for CD3 and biotin-coupled anti-rat (Vector Laboratories) for F4/80, and then incubated with streptavidin coupled HRP (Southern). At the end, DAB (DAKO) staining was used to detect HRP. For quantification of CD3+ and F4/80+ renal cells, the degrees of cellular infiltrate were automatically quantified using ImageJ software (NIH) and expressed as a percentage of the surface area of the positive staining per field, in at least 10 random fields perp

influenza A H1N1 virus = assay: microbe, parasite or virus in culture; conditions: H1N1, A549, read-out: Neuraminidase activity assay IC50
[3] = dEF3122 twice daily 7 or 20 mg/kg, OCA once daily 7 mg/kg, vs vehicle

For O=C(Nc1scc(C2CCc3ccccc3C2)c1C(=O)O)c1ccccc1 (stereo not drawn) [dEF3122], the solubility kinetic at 30 min (Kinetic solubility) was less than 5 µM, the hepatocyte CLint at 1 µM [1] was less than 5 µL/min/1e6 cells and the “interaction by [2Fe-2S] cluster release assay” value (MitoNEET) was “validated the interaction”. The “kidney interstitial lymphocytes infiltration (CD3)” value ([2]; twice daily 7 or 20 mg/kg) was “attenuated interstitial lymphocytes infiltration”, the “kidney macrophages infiltration (F4/80)” value ([2]; twice daily 7 or 20 mg/kg) was “but not macrophages infiltration” and the kidney fibrosis ([2]; twice daily 7 or 20 mg/kg, picrosirius red) was “dramatically reduced fibrosis”. The liver portal fibrosis [2, 3] was “resolved portal inflammation and fibrosis”, the liver portal inflammation [2, 3] was “resolved portal inflammation” and the IC50 (influenza A H1N1 virus) was 3 nM.
